Values quoted from earlier work as cited in patent US20150140121A1, “Compositions and Methods for Tight Junction Modulation” (Lankenau Institute for Medical Research, priority 2012, published 2015).

Legend:
claudin 3 = details: berberine; CACO-2 and HT-29/B6 cell layers; cited from earlier work
claudin 7 = details: berberine; CACO-2 and HT-29/B6 cell layers; cited from earlier work
claudin-1 = details: berberine; CACO-2 and HT-29/B6 cell layers; cited from earlier work
claudin 5 = details: berberine; CACO-2 and HT-29/B6 cell layers; cited from earlier work
claudin-4 = details: berberine; CACO-2 and HT-29/B6 cell layers; cited from earlier work
occludin = details: CACO-2 and HT-29/B6 cell layers, cited from earlier work
[1] = tested on: colonc epithelial (CACO-2 and HT-29/B6) cell layers; details: berberine 50 micromolar, Li et al. 2010, Amasheh et al. 2010; cited from earlier work
claudin 2 = details: berberine; CACO-2 and HT-29/B6 cell layers; cited from earlier work

COc1ccc2cc3[n+](cc2c1OC)CCc1cc2c(cc1-3)OCO2 [berberine]
amount of claudin 3 (claudin 3): no effect | amount of claudin 7 (claudin 7): no effect | cellular amount of claudin 1 (claudin-1): Strong effects | amount of claudin 5 (claudin 5): no effect | amount of claudin 4 (claudin-4): no effect | occludin redistribution that ensues from proinflammatory cytokine exposure (occludin; berberine 50 micromolar): prevents | amount of occludin (occludin; berberine): no effect | TJ leakiness that ensues from proinflammatory cytokine exposure [1]: prevents | cellular amount of claudin 2 (claudin 2): Strong effects
